Activity calls are given as the source filed them. No cut-off for these calls is given here.
Test system: NCI-H660
Assay: Cytotoxicity against human NCI-H660 cells assessed as decrease in cell viability at 5 to 10 uM incubated for 48 hrs by CellTiter-Blue assay
Format: functional, cell-based
Details: dose 5-10 µM

In the case of `CCCc1cc(C)[nH]c(=O)c1CNC(=O)c1cc(-c2ccnc(N3CCN(C)CC3)c2)cc2c1cnn2C(C)C`, the Activity is reported as “Active”.

From ChEMBL document CHEMBL5712074, “Divergent clonal evolution of castration-resistant neuroendocrine prostate cancer” (Nat Med, 2016)
